Laboratory results: PMC10627047, “Flavone-based dual PARP-Tubulin inhibitor manifesting efficacy against endometrial cancer” (Journal of Enzyme Inhibition and Medicinal Chemistry, 2023)

What was measured:
[1] = test system: Ishikawa cell lines; assay: In-vitro cytotoxicity (MTT cell viability assay); format: cell-based; conditions: Homo sapiens; Ishikawa cell lines, MTT, 48 h incubation, mean ± SD, at least three experiments; read-out: IC50 values (Ishikawa cell lines, µM ± SD), in-vitro growth inhibition
Protocol: The cell growth inhibitory effects of the synthesised compounds were evaluated against Ishikawa cell lines. […] Forth, the synthesised compounds bearing a substituted phenyl ring at position 2 of the biaryl arm bearing benzopyrans were profiled for the cytotoxic effects. Noteworthy to mention that diverse substitutions with varied electronic effects viz fluorine (−I, +R), methoxy (−I, +R), and nitro (−I and − R) were made on the phenyl ring (position 2 of benzopyran). Also, the trimethoxy phenyl ring well established as an imperative structural feature of tubulin inhibitors was tethered to the benzopyran scaffold (20, 21).
Ishikawa cells (a human endometrial carcinoma of the epithelial cell) were kindly gifted by Dr. Geetanjali Sachdeva and Dr. Uddhav Chaudhari of National Institute for Research In Reproductive and Child Health (NIRRCH), Mumbai. […] The cells were maintained in RPMI medium supplemented with 10% Foetal bovine serum (FBS) and 100 IU/mL penicillin.
Mitochondrial activity was evaluated by MTT assay.[59] This assay is based on enzymatic reduction of the yellow-colored MTT dye to purple-colored formazan crystals by a variety of mitochondrial and cytosolic enzymes that are operational in viable cells. Briefly, […] (3000 cells/well) were seeded in 100 µL of medium into a 96-well plate and left to settle in a CO2 incubator. […] Then 150 μL of DMSO was added to each well to dissolve the formazan crystals. The optical density (OD) of each well was recorded using a microplate reader at a wavelength of 570 nm. The percentages of cell viability and growth inhibition were calculated according to the following equations. Cell viability (%) = [(OD of treated cells-OD of blank)/(OD of control-OD of blank) ×100].

[2] = biological target: T1, Tubulin (Sus scrofa, UniProt P02550+P02554); assay: In vitro microtubule assembly (tubulin polymerisation) assay; format: biochemical; conditions: treatment concentrations 0.1, 1, 5, 10 μM; mean ± SD of three experiments
T1 construct: purchased Cytoskeleton T240 (kit BK006P)
Protocol: The assay was performed using the tubulin polymerisation kit (BK006P,Cytoskeleton). Pure tubulin (cat. # T240) was equilibrated in 80 mM PIPES, 1 mM EGTA, 1 mM MgCl2, pH 6.8 buffer (BRB80) and centrifuged at 75 000 rpm for 10 min in an TLA-100 rotor in a centrifuge.

[3] = test system: Ishikawa cells; assay: Nuclear and cellular morphology (DAPI staining), apoptosis; format: cell-based, human; conditions: Ishikawa cells, 0.1, 0.5 and 1 μM, 24 h
Protocol: Ishikawa cell lines were treated with compound 14 at concentrations of 0.1, 0.5, and 1 μM for 24 h. Cellular morphology was observed by an inverted microscope. DAPI staining was done to monitor the nuclear morphology. […] Thus, the results were indicative of the apoptosis-inducing ability of compound 14 (Figure 9).
Ishikawa was treated with compounds 14 at concentrations of 0.1, 0.5, and 1 μM for 24 h. Briefly, cells were collected, washed twice with PBS, and fixed with methanol: acetic acid (3:1 ratio v/v). The next day, cells were washed and dispensed in 50 μL of fixing solution. Cells were then spread on clean slides, and exposed to DAPI solution (4′,6-diamidino-2-phenylindole(DAPI) (CAS Number: 28718–90-3) (5 μg/mL in 0.01 M citric acid and 0.45 M disodium phosphate containing 0.05% Tween 20) for 30 min at room temperature. The slides were then rinsed with distilled water for 10 min, and washed with PBS. After drying, the slides were mounted with glycerol: PBS (1:1 ratio v/v) and observed under the fluorescent microscope to figure out any nuclear morphological changes that occur during apoptosis.[60]

[4] = test system: Ishikawa cells; assay: Acridine orange staining, autophagy; format: cell-based, human; conditions: Ishikawa cells, 0.1, 0.5 and 1 µM
Protocol: Compound 14 was evaluated for its ability to induce autophagy by acridine orange staining assay. […] This shift towards red fluorescence represents an elevation in autophagic flux, reflecting an active process of cellular degradation and recycling.
The Autophagy induction ability of compound 14 was assessed by acridine orange staining which is used to measure the autophagic acidic vesicular organnelles. Ishikawa cell were seeded in a six-well plate and treated with compound 14 for 48 h. Incubation of the cells was done with 1 mg/mL Acridine orange (Cat no. A9231) before the termination of the experiment. Cells were then washed with PBS and then analysed with a fluorescence microscope. […] A9231.

T1 sequence (P02550 whole entry): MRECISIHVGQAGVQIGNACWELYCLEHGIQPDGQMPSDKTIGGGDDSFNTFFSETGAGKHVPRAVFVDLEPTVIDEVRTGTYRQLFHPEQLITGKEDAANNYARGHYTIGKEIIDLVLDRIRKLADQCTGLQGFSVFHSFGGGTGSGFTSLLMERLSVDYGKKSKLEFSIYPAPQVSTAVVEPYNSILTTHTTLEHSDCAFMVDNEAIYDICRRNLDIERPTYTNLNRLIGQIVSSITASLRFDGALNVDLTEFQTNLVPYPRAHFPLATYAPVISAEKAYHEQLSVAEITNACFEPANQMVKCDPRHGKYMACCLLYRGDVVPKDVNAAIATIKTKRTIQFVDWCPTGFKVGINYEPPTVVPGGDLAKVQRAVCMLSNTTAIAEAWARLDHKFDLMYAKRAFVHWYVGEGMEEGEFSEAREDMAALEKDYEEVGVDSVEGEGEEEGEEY
T1 sequence (P02554 whole entry): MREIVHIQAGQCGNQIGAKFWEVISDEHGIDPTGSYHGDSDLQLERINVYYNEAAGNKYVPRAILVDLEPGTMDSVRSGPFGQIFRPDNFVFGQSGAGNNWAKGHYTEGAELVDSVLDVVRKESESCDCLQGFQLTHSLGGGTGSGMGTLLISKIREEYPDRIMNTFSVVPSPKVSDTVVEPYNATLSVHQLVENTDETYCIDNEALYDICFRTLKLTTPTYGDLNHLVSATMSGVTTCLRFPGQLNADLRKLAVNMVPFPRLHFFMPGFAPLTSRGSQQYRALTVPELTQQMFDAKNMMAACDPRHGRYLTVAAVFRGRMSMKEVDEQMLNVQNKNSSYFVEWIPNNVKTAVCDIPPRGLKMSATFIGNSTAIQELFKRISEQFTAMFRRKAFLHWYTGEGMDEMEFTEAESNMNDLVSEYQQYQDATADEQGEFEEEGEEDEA

IC50 [2]: 1.4 ± 0.3 µM
Compound: O=c1cc(-c2ccc(F)cc2)oc2cc(-c3ccoc3)ccc12 [Compound 14, 2–(4-fluorophenyl)-7-(furan-3-yl)-4H-chromen-4-one]
IC50 [1]: 1 ± 0.4 µM
Apoptosis induction (nuclear morphology, DAPI staining) [3]: concentration-dependent increase in the number of scattered apoptotic bodies
Autophagy induction (acridine orange staining) [4]: induces autophagy by increasing autophagic flux in a concentration-dependent manner
